Legend:
[1] = system: BMMCs; experiment: Toluidine blue staining of granules in BMMCs; format: cell-based, mouse
Method: FIG. 2. A15 inhibits granule release from BMMCs. […] BMMCs were cytocentrifuged onto a glass slide, fixed, stained with toluidine blue (1%, pH<1) for 30 min, and washed before observing microscopically. Images were acquired at 400× magnification and are representative.

[2] = system: RBL-2H3 cells; experiment: TNF-α production, ELISA, 8 hrs (Example 1); format: cell-based, rat; details: 1 μM A23187, all doses tested
Method: FIGS. 6A-6B. A15 inhibits de novo production of TNF-α and PGE2 from RBL-2H3 cells. RBL-2H3 cells were plated and incubated overnight prior to stimulation. Cells were stimulated with 1 μM A23187 in combination with the indicated doses of A15. Supernatants were collected 8 hrs later and TNF-α (FIG. 6A) or PGE2 (FIG. 6B) levels were measured using ELISA kits. Data shown are the means±SEM from 3 independent experiments. Statistical analysis was performed using a one-way ANOVA with Dunnett's post-hoc test, *p<0.05, **p<0.01, ***p<0.001.
Bone marrow cells were isolated from the femurs of 6-8 week old C57BL/6 mice and cultured in RPMI-1640 containing 10% heat-inactivated FBS, non-essential amino acids, HEPES buffer, sodium pyruvate, 100 U/mL penicillin, 100 μg/mL streptomycin, 5 ng/mL mIL-3, and 5 ng/mL mSCF for 4-6 weeks until mature, bone marrow-derived mast cells (BMMCs) were obtained, as described previously (Kuehn et al., 2010). Differentiation into >98% mast cells was confirmed through toluidine blue staining (1%, pH 1). RBL-2H3, RAW 264.7, and Jurkat cells were obtained from the American Type Culture Collection (Manassas, Va.). […] Optical density was determined using a Synergy HT microplate reader (BioTek Instruments, Inc, Winooski, Vt.). […]

[3] = TDI-induced ear swelling; format: in vivo, mouse
From the text: Several different model systems were utilized for these experiments. In one model, dorsal root ganglia were obtained from mice and the neurons cultured in vitro. The neurons were then stimulated in the presence/absence of A15 and YM8-85 and the calcium responses monitored by fluorescence microscopy. In the second model, the alkamides were applied to mouse skin in mineral oil. The reactions of these mice to heat, cold, and tactile stimulation was then compared with mice that had not received treatment with A15. In a third model, mice were sensitized to the chemical compound toluene-2,4-diisocyanate (TDI). TDI is an industrial chemical which causes hypersensitive skin lesions and itching in exposed humans and animals. The physiological response to TDI is complex involving type 2 T lymphocytes, cytokines, mast cells, and neurons. Alkamides were applied to sensitized animals and then ear swelling and bouts of scratching were monitored.
A15 and TDI induced hypersensitivity. Mice were sensitized to toluene-2,4-diisocyanate (TDI) via abdominal application. Subsequently, a hypersensitive response was induced in the ear by direct application of TDI and ear thickness measured as a sign of inflammation.

[4] = system: RBL-2H3 cells; experiment: Calcium assay, Fluo-4 (Example 3); format: cell-based, rat
Method: FIGS. 22A-22D. The alkamide fatty acid is necessary for inhibition of calcium influx. RBL-2H3 cells were plated overnight, incubated with Fluo-4 AM for 1 h, stimulated by 1 μM A23187 (FIG. 22A) or 5 ng/mL DNP-BSA (FIG. 22B) in the absence or presence of each alkamide, and fluorescence was read for 2 mins every 5 secs. Data are presented as the mean change in RFU of 4 experiments. Percent inhibition of calcium influx was calculated for A23187 (FIG. 22C) and DNP-BSA (FIG. 22D) stimulated cells at 2 mins. *P<0.05, **P<0.01, and ***P<0.001 one-way ANOVA with Dunnett's post hoc test compared to A15.
RBL-2H3 cells (1.0×10^5 cells) were incubated overnight in a 96 well black-wall clear bottom plate with or without IgE-DNP (0.1 μg/mL) at 37° C. with 5% CO2. The assay was performed using the Fluo-4 Direct™ Calcium Assay Kit according to the manufacturer's instruction. Briefly, cells were incubated with the Fluo-4 Direct calcium reagent loading solution for 30 minutes at 37° C. with 5% CO2 then 30 mins at room temperature. Prior to stimulation, the well baseline fluorescence was measured every 5 seconds over 1 minute using a BioTek Synergy HT microplate reader with 485/20 nm excitation and 528/20 nm emission filters. Cells were stimulated with 1 μM A23187 or 5 ng/mL DNP (IgE-DNP) in the absence or presence of each compound, and the fluorescence was measured every 5 seconds over 2 minutes. The change in fluorescence (ΔRT) was calculated as the sample fluorescence minus the baseline fluorescence for each well.

[5] = system: RBL-2H3 cells; experiment: TNF-α ELISA, 18 hrs (Example 3); format: cell-based, rat; details: 1 μM A23187, 18 hours
Method: FIGS. 25A-25B. […] RBL-2H3 cells were plated overnight and stimulated with 1 μM A23187 in the absence or presence of each alkamide for 18 h. Culture supernatants were analyzed for TNF-α levels by ELISA and experiments were performed in triplicate (FIG. 25A). Percent inhibition of TNF-α secretion for each alkamide listed in FIG. 25B. *P<0.05, **P<0.01, ***P<0.001, one-way ANOVA with Dunnett's post hoc test compared to vehicle (FIG. 25A) or A15 (FIG. 25B).
RBL-2H3 cells (1.0×10^5 cells) were incubated overnight in a 24 well plate at 37° C. with 5% CO2. Cells were washed with 1×PBS and stimulated with 1 μM A23187 for 18 hrs in the absence or presence of each compound. The cells were centrifuged (1200×g, 5 min) and the supernatants were collected. The concentration of TNF-α in the supernatants were determined using the TNF-α ELISA kit.

With `CCCCCCC/C=C/C=C/C(=O)NCC(C)C` [A15, (2E,4E)-N-Isobutyldodeca-2,4-dienamide] the “toluidine blue staining, compound alone” value ([1]; 100 μM A15 alone, 30 min) was “did not noticeably affect staining”, the “A23187-induced reduction of toluidine blue staining (granule release)” value ([1]; 100 μM A15 with 1 μM A23187, 30 min) was “blocked” and the “production of TNF-α” value [2] was “significant, dose dependent inhibition”. For the same compound, the “TDI ear swelling (ear thickness)” value ([3]; 0.1%, first experiment (FIG. 13A)) was “significant inhibitory effect”, the “TDI ear swelling (ear thickness)” value ([3]; 0.1%, repeated experiment (FIG. 13B)) was “neither A15 nor YM8-85 at 0.1% produced significant inhibition” and the “TDI ear swelling (ear thickness)” value ([3]; 1%, first experiment (FIG. 13A)) was “significant responses were not seen”. The “percent inhibition of calcium influx” value ([4]; 5 ng/mL DNP-BSA, at 2 minutes) was 66%, the “percent inhibition of calcium influx” value ([4]; 1 μM A23187, at 2 minutes) was 76% and the “percent inhibition of TNF-α secretion” value [5] was 79%.
